Read-outs that look alike come from different tables or passages of the source. Where a SMILES comes first, the peptide text is derived from it. Where no end group is shown, it is not given here.
Legend:
[1] = cited from earlier work
[2] = Plasmin sensitivity: peptides in PBS challenged with 10 ug/ml plasmin, HPLC; details: isolated enzyme plasmin
[3] = rat, in vivo; for Weight: iv
plasmin [4] = target: T1, plasmin (Homo sapiens, UniProt P00747); test: in vitro; details: isolated enzyme plasmin
[5] = Renal biomarkers or electrolyte imbalance after administration to rats (Table 7); type: in vivo
Description: NoNO42 was tested for effect on various renal biomarkers or electrolyte imbalance in comparison with nerinetide after administration to rats as shown in Table 7.

[6] = rat, in vivo
Description: Blood plasma samples were collected before injection and at 10, 15, 20, 30, 45, 60 min post-dose. Each point represents the mean (±SD) of three animals per group.

plasmin [7] = target: T1, plasmin; type: in vitro ADME; set-up: challenged with 10 ug/ml plasmin at 37 C
Description: Plasmin is a serum protease induced by thrombolytic agents, such as tPA. Plasmin cleavage sites can occur on the C-terminal side of basic amino acids residues in a peptide formed of L-amino acids. NA-1 was digested with plasmin and the products analyzed by mass spectrometry. […] However, cleavage at the other two sites may occur to a lesser extent.

Weight gain of rats = details: IV 7.6 mg/kg
tPA = tPA (Homo sapiens, UniProt P00750)
plasmin [8] = target: T1, plasmin; test: Plasmin sensitivity: peptides in PBS challenged with 10 ug/ml plasmin, HPLC
[9] = human studies, 2.6 mg/kg dose; cited from earlier work
tMCAo = test: Dose range of nerinetide in rat tMCAo model; type: in vivo, rats
Description: Nerinetide and lodoxamide was administered to rats intravenously as a bolus injection, 60 minutes after tMCAo. […] Bars in A and represent mean±SD, with all individual data points plotted. Asterisks in A indicate P<0.01 when compared to the vehicle group (one-way ANOVA post hoc Tukey's correction for multiple comparisons test) N=12-14 animals/group. […] Significant differences are indicated with an asterisk when compared to the vehicle group (Kruskal-Wallis analysis of variance on ranks with a post-hoc Dunn's correction for multiple comparisons test, *P<0.01). Vehicle: PBS alone. […] Doses up to at least 25 mg/kg were also effective with the highest efficacy being at about 15 mg/kg. The observed wide therapeutic range was attributable to nerinetide, and not to the mast cell degranulation inhibitor lodoxamide, which was present in all solutions to avoid potential hypotension due to histamine release.

NMDAR2B:PSD-95 complexes = target: T2, NMDAR2B:PSD-95 complexes (Rattus norvegicus, UniProt P31016); test: Dissociation of NMDAR2B:PSD-95 complexes after 3PVo, immunoprecipitation and Western blotting; type: in vivo, Sprague-Dawley rats; details: 7.6 mg/kg 1 hr after stroke onset (3PVo), brains harvested 2 h after onset
T2 construct: Cortical stroke areas were collected for analysis; from tissue; host or cells: rat brain cortex (stroke area) after in vivo dosing
Description: Sprague-Dawley rats were subject to three pial vessel model (3PVo). […] Brains were harvested 2 h after stroke onsets. Cortical stroke areas were collected for analysis. Immunoprecipitations were performed with anti-PSD-95 or anti-NMDAR2B. The amount of PSD-95 and NMDAR2B in samples was analyzed by Western blotting. Reduction in PSD-95-NMDAR2B complex formation was assessed by fold decrease of placebo versus treatment.

[10] = Degradation in human plasma in vitro, alone or with rt-PA or TNK
Description: (§1) Samples were collected at 6 different time points.
(§2) The experiment was repeated using TNK-tissue plasminogen activator in place of tPA.

[11] = Degradation in rat plasma in vitro, alone or with rt-PA or TNK
Description: as §1, §2

[12] = humans; cited from earlier work
plasmin [13] = target: T1, plasmin; type: in vitro ADME; set-up: challenged with 10 ug/ml plasmin at 37 C; remark: listed apart in the source
[14] = Plasma concentrations 15 minutes post subcutaneous dose (animals of the 3PVO model); type: in vivo, rat; details: single subcutaneous administration, 2.5, 7.6, 25 mg/kg
Description: Unlike transient models of stroke in rats where much lower doses are required for neuroprotection, neuroprotection in 3 pial vessel occlusion models of stroke seems to require plasma concentrations of nerinetide at or above 2 ug/mL (or molar equivalent). […] Although the plasma levels continue to increase through about 3 hours then decrease, it is important to achieve rapid accumulation in the blood and brain for emergency indications like stroke. […] For pharmacokinetic sample analysis, calibration standard samples at concentrations of 0, 2.5, 5, 10, 15, 20 and 40 ug/mL of nerinetide were prepared by spiking 1 μL of the appropriate stock to 100 μL of plasma. […] Data is presented as mean±SD.

PSD95PDZ2 = PSD95PDZ2 (Homo sapiens, UniProt P78352); test: Competitive ELISA with biotinylated-NA-1; details: PSD-95 domain 2, FIG. 12
[15] = Pharmacokinetic analysis in rats (subcutaneous, pulmonary instillation, intravenous, intramuscular), HPLC
Description: Rats were anaesthetized in the supine position (Isoflurane 1.5--%) and allowed to breath spontaneously in 0.5 L/min 02. The left femoral artery was cannulated for blood sampling.
Test agents were prepared at the stablish concentration in a total volume of vehicle. Pulmonary instillation was performed by intubation with a 14G catheter connected to a 1 cc syringe and the test agent will be delivered through the catheter. Subcutaneous (SQ or SC) injection was injected into the area of the left flank, no more than 2 ml of total volume per site.
Each dose was evaluated in 3 rats for each administration strategy. […] For the first experiment, evaluating two different administration routes (SQ and PI), blood samples were collected at 8 different timepoints: Pre and at 7 additional times (1, 2.5, 5, 10, 15, 30, 60 min) post dose (250 ul/sample).
HPLC quantification: Plasma was separated from blood and stored at −−−80° C. until used. […] Standard curves for HPLC were generated from plasma samples spiked with known quantities of test agent.

[16] = test system: 3-pial vessel occlusion model of stroke
[17] = IV bolus with lodoxamide 60 minutes after tMCAo

T1 sequence (P00747 581-810 limits assumed, species assumed): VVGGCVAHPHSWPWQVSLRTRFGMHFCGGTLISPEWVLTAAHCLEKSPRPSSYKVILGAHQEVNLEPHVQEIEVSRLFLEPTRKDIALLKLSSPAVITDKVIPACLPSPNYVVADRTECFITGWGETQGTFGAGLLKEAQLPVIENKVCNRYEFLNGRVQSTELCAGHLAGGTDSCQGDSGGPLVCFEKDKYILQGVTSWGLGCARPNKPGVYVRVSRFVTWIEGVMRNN
T1 sequence (P00747 97-580 partner limits assumed, species assumed): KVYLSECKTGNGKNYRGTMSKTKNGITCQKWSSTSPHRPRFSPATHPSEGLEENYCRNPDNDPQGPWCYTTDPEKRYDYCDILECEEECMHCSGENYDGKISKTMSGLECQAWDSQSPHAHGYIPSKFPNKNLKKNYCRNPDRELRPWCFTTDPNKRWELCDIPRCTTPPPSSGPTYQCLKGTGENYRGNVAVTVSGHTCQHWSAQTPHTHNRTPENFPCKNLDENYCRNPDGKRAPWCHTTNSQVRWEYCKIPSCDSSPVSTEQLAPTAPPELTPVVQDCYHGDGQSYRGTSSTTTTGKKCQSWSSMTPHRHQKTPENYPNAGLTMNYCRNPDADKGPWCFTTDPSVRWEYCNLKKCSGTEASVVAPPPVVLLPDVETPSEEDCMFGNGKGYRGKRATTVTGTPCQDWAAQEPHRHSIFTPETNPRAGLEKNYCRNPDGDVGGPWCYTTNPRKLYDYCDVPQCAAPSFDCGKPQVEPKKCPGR
tPA, sequence (P00750 36-562): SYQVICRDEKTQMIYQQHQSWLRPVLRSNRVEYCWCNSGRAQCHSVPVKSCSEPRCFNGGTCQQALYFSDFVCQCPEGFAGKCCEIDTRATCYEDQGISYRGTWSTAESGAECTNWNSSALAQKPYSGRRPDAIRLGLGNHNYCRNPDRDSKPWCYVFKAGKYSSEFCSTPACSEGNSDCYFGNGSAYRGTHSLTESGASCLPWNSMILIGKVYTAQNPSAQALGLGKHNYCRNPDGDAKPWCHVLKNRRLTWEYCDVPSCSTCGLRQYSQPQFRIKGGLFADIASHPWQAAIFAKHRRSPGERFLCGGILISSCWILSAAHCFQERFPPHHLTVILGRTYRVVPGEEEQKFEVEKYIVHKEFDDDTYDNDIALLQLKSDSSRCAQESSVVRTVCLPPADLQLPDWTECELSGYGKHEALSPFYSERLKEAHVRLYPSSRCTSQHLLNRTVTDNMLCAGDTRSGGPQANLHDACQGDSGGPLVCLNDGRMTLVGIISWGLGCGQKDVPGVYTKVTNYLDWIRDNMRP
PSD95PDZ2, sequence (P78352 160-246 limits assumed): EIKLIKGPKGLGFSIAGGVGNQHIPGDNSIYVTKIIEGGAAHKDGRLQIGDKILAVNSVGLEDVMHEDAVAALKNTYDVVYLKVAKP
T2 sequence (P31016 whole entry, one chain of several): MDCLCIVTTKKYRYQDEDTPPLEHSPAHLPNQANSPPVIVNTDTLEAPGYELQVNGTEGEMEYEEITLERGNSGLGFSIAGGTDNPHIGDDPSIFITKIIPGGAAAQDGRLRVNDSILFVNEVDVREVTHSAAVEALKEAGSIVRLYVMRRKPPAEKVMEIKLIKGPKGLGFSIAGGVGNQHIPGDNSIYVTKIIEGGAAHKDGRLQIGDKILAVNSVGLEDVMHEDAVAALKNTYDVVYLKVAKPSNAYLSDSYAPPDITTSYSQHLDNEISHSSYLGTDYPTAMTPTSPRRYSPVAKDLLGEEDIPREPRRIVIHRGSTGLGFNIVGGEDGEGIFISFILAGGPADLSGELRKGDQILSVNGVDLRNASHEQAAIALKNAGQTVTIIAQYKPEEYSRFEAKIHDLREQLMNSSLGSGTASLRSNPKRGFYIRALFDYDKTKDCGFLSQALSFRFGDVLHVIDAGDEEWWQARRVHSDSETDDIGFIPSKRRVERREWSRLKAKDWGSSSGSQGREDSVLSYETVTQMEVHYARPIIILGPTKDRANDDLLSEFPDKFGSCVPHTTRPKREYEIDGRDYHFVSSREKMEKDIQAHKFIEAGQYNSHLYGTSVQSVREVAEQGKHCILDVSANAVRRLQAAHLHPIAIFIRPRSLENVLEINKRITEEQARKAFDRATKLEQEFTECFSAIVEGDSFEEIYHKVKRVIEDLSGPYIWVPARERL

## N[C@@H](Cc1ccc(O)c(O)c1)C(=O)O [Levodopa]
[1]
  half-life: 1.5 h

## CC[C@H](C)[C@H](NC(=O)[C@H](CO)NC(=O)[C@H](CO)NC(=O)[C@H](CC(C)C)NC(=O)[C@H](CCCCN)NC(=O)[C@H](CCCNC(=N)N)NC(=O)[C@@H](CCCNC(=N)N)NC(=O)[C@H](CCCNC(=N)N)NC(=O)[C@H](CCC(N)=O)NC(=O)[C@@H](CCCNC(=N)N)NC(=O)[C@H](CCCNC(=N)N)NC(=O)[C@H](CCCCN)NC(=O)[C@@H](CCCCN)NC(=O)[C@H](CCCNC(=N)N)NC(=O)CNC(=O)[C@@H](N)Cc1ccc(O)cc1)C(=O)N[C@@H](CCC(=O)O)C(=O)N[C@@H](CO)C(=O)N[C@@H](CC(=O)O)C(=O)N[C@H](C(=O)O)C(C)C [NA-4.4.3] (HELM PEPTIDE1{Y.G.R.[dK].K.R.[dR].Q.R.[dR].R.K.L.S.S.I.E.S.D.V}$$$$V2.0; N-terminus and C-terminus assumed)
[2]
  remaining at 0.5 h, 65 ug/ml: > 85%

## CC[C@H](C)[C@H](NC(=O)[C@H](CO)NC(=O)[C@H](CO)NC(=O)[C@H](CC(C)C)NC(=O)[C@@H](CCCCN)NC(=O)[C@H](CCCNC(=N)N)NC(=O)[C@H](CCCNC(=N)N)NC(=O)[C@@H](CCCNC(=N)N)NC(=O)[C@H](CCC(N)=O)NC(=O)[C@@H](CCCNC(=N)N)NC(=O)[C@H](CCCNC(=N)N)NC(=O)[C@H](CCCCN)NC(=O)[C@H](CCCCN)NC(=O)[C@@H](CCCNC(=N)N)NC(=O)CNC(=O)[C@@H](N)Cc1ccc(O)cc1)C(=O)N[C@@H](CCC(=O)O)C(=O)N[C@@H](CO)C(=O)N[C@@H](CC(=O)O)C(=O)N[C@H](C(=O)O)C(C)C [NoNO42] (HELM PEPTIDE1{Y.G.[dR].K.K.R.[dR].Q.[dR].R.R.[dK].L.S.S.I.E.S.D.V}$$$$V2.0; N-terminus and C-terminus assumed)
[3]
  weight gain compared with nerinetide: No significant difference was seen
[3]; 3.8 mg/kg
  Weight: 342.3 grams
[3]; 5.7 mg/kg
  Weight: 341.7 grams
[3]; 7.6 mg/kg
  Weight: 331.0 grams
Plasmin [4]
  remaining at 0.5 h, 65 ug/ml: ~100%
[5]; rat, in vivo
  renal biomarkers or electrolyte imbalance in comparison with nerinetide: No significant difference was observed
[5]; rat, in vivo, iv, 3.8 mg/kg
  Creatinine: 0.2 mg/dL
[5]; rat, in vivo, iv, 5.7 mg/kg
  iCa: 1.47 mmol/L
[5]; rat, in vivo, iv, 7.6 mg/kg
  Creatinine: 0.2 mg/dL
  tCO2: 33.7 mmol/L
[5]; rats, IV 3.8 mg/kg, Day 4
  Na+: 137.3 mmol/L
[5]; rats, IV 3.8 mg/kg, Pre
  Cl: 98.3 mmol/L
  iCa: 1.43 mmol/L
[5]; rats, IV 5.7 mg/kg, Day 4
  Na+: 137.3 mmol/L
[5]; rats, IV 5.7 mg/kg, Day 14
  iCa: 1.46 mmol/L
[5]; rats, IV 5.7 mg/kg, Pre
  iCa: 1.46 mmol/L
[5]; rats, IV 7.6 mg/kg, Day 4
  iCa: 1.46 mmol/L
  tCO2: 35.7 mmol/L
[5]; rats, IV 7.6 mg/kg, Day 14
  Cl: 98.3 mmol/L
  Hgb: 13.4 g/dL
  Na+: 137.3 mmol/L
  tCO2: 35.7 mmol/L
[6]
  CMax of NoNO42 5.7 mg/kg versus nerinetide 7.6 mg/kg: same CMax

## YGRKKRRQRRRKLSSIESDV [NA-1, reference compound]
Plasmin [7]
  plasmin cleavage sites: cleavage at seven of nine potential sites
Weight gain of rats; Day 4
  Weight: 368.0 grams
Weight gain of rats; Day 14
  Weight: 420.0 grams
Weight gain of rats; Pre
  Weight: 360.3 grams
tPA
  degradation, control treatment with tPA: no degradation
  direct cleavage by tPA or TNK: Neither tPA nor TNK directly cleaves NA-1
Plasmin [8]; 10 ug/mL plasmin (FIG. 29)
  time to degradation: ≤ 5 min
Plasmin [8]; about 65 ug/ml peptide in PBS, 10 ug/ml plasmin, 37 C, HPLC
  degradation by plasmin: completely degraded in about five minutes
[9]
  effective plasma concentration: ~10 µg/mL
[5]; rats, IV 7.6 mg/kg, Day 4
  Anion Gap: 7.3 mmol/L
  BUN: 13.7 mg/dL
  Cl: 100.7 mmol/L
  Creatinine: 0.2 mg/dL
  Glucose: 178.0 mg/dL
  Hct: 39% ± % PCV
  Hgb: 13.4 g/dL
  K+: 4.8 mmol/L
  Na+: 137.3 mmol/L
  iCa: 1.43 mmol/L
  tCO2: 35.0 mmol/L
[5]; rats, IV 7.6 mg/kg, Day 14
  Anion Gap: 9.0 mmol/L
  BUN: 16.7 mg/dL
  Cl: 98.3 mmol/L
  Creatinine: 0.2 mg/dL
  Glucose: 253.3 mg/dL
  Hct: 38% ± % PCV
  Hgb: 13.0 g/dL
  K+: 4.4 mmol/L
  Na+: 136.7 mmol/L
  iCa: 1.45 mmol/L
  tCO2: 34.3 mmol/L
[5]; rats, IV 7.6 mg/kg, Pre
  Anion Gap: 7.3 mmol/L
  BUN: 15.0 mg/dL
  Cl: 98.0 mmol/L
  Creatinine: 0.2 mg/dL
  Glucose: 251.7 mg/dL
  Hct: 38% ± % PCV
  Hgb: 13.0 g/dL
  K+: 4.8 mmol/L
  Na+: 135.7 mmol/L
  iCa: 1.46 mmol/L
  tCO2: 35.7 mmol/L
tMCAo; [17]
  dose of highest efficacy: about 15 mg/kg
  doses up to which nerinetide was effective: at least 25 mg/kg
tMCAo; IV bolus with lodoxamide 60 minutes after tMCAo, 24 hours
  lowest dose producing significant reduction in infarct volume and improvement in neurological function: 0.25 mg/kg
tMCAo; rat tMCAo model, at least this range
  effective dosage range (reducing infarction size and neurologic deficit): 0.25-25 mg/kg
NMDAR2B:PSD-95 complexes
  dissociation of preformed NMDAR2B:PSD-95 complexes: able to dissociate preformed NMDAR2B:PSD-95 complexes
[10]; human plasma (FIG. 7)
  degradation with coadministration of TNK: rapid degradation
[10]; human plasma in vitro, NA-1 65 ug/mL, rt-PA 22.5-135 ug/mL
  NA-1 content decay with tPA versus NA-1 alone: decayed much more rapidly when tPA was co-administered
[11]; rat plasma (FIG. 8)
  degradation with coadministration of TNK: rapid degradation
[11]; rat plasma in vitro, NA-1 65 ug/mL, rt-PA 22.5-135 ug/mL
  NA-1 content decay with tPA versus NA-1 alone: decayed much more rapidly when tPA was co-administered
[11]; rat plasma in vitro, treated with tPA
  time to decay to zero: ≤ 15 min
[12]
  doses at which drops in blood pressure have been observed: above 3.75 mg/kg
Plasmin [13]
  degradation on treatment with plasmin: rapidly degraded
[14]
  relation between treatment dose and Cmax: dose proportionality between the treatment dose and the Cmax
PSD95PDZ2
  EC50 (compared between peptides): about the same within experimental error
[15]; intramuscular
  AUC versus intravenous NA-1: somewhat higher
  CMax versus intravenous NA-1: lower
  half-life versus intravenous NA-1: higher
[15]; subcutaneous
  AUC versus the same dose of intravenous NA-1: somewhat lower
  CMax versus the same dose of intravenous NA-1: much lower
  half-life versus intravenous NA-1: longer
[16]; 7.6 mg/kg subcutaneous bolus 60 minutes after onset of stroke
  infarct volume compared to placebo: failed to achieved infarct volume reduction
[16]; 25 mg/kg subcutaneous bolus 60 minutes after onset of stroke
  infarct volume compared to placebo: significant reduction in infarct volume
[16]; 3 pial vessel occlusion models of stroke
  plasma concentration required for neuroprotection: ≥ 2 µg/mL
